Earlier results on 1 molecule are cited in publication PMC12022903, “Evaluation of drug-drug interaction between Suraxavir Marboxil (GP681) and itraconazole, and assessment of the impact of gene polymorphism” (Frontiers in Pharmacology, 2025).

On the set-up of series [1]: method as in unpublished data. The note with it: preclinical studies; ref unpublished data; cited from earlier work.
Another series relates to plasma protein. Also on record: method as in unpublished data. Particulars: preclinical studies; ref unpublished data; cited from earlier work.
The next series concerns cytochrome P450 (CYP). Also on record: method as in unpublished data. The note with it: preclinical studies; ref unpublished data; cited from earlier work.
For the next series, the system named is CYP3A4. Particulars: preclinical in vitro studies; cited from earlier work.
The next series relates to liver enzymes. Also on record: method as in unpublished data. Particulars: preclinical studies; ref unpublished data; cited from earlier work.
A further series relates to MDR1. Also on record: method as in unpublished data. Particulars: preclinical studies; ref unpublished data; cited from earlier work.
Another series deals with OATP1B1. Also on record: method as in unpublished data. The note with it: preclinical studies; ref unpublished data; cited from earlier work.
A further series has as its system OATP1B3. Also on record: method as in unpublished data. Particulars: preclinical studies; ref unpublished data; cited from earlier work.
For the next series, the system named is OAT1. Also on record: method as in unpublished data. Particulars: preclinical studies; ref unpublished data; cited from earlier work.
Another series relates to OAT3. Also on record: method as in unpublished data. Particulars: preclinical studies; ref unpublished data; cited from earlier work.
On the set-up of series [2]: method as in unpublished data. The note with it: after oral GP681; ref unpublished data; cited from earlier work.
Details of series [3]: method as in Phase I study. Particulars: ref Phase I study, cited from earlier work.
The test system of another series is influenza virus. Also on record: method as in preclinical studies. Particulars: ref preclinical studies; cited from earlier work.

SMILES strings stand for the structures. A value given as a limit tells only on which side of the number the result lay.

Regarding `O=C1c2c(O)c(=O)ccn2N([C@@H]2c3ccccc3SCc3c2ccc(F)c3F)[C@@H]2COC3(CC3)CN12` [GP1707D07], in [1], the route of excretion entry was “mainly excreted in feces” and the tissue distribution entry is given as “widely distributed across various tissues”. Moreover, the “plasma protein binding rate” value in the series with plasma protein is reported as “high plasma protein binding rate”. Moreover, the metabolizing enzymes entry in the series with cytochrome P450 (CYP) is “mainly metabolized by cytochrome P450 (CYP) 1A2, CYP 2C8, and CYP 3A4”. The “substrate of CYP3A4” value in the series with CYP3A4 is recorded as “is a substrate of CYP3A4”. The “inhibition or induction of liver enzymes” value with liver enzymes is recorded as “do not significantly inhibit or induce liver enzymes”. The “inhibition of transport activity of MDR1” value in the series with MDR1 is “nor do they inhibit the transport activity”. Moreover, the “inhibition of transport activity of OATP1B1” value with OATP1B1 is on record as “nor do they inhibit the transport activity”. Besides, in the series with OATP1B3, the “inhibition of transport activity of OATP1B3” value is on record as “nor do they inhibit the transport activity”. The “inhibition of transport activity of OAT1” value with OAT1 is recorded as “nor do they inhibit the transport activity”. For the same molecule, in the series with OAT3, the “inhibition of transport activity of OAT3” value was “nor do they inhibit the transport activity”. Moreover, in series [2], the “share of the total radioactivity in serum” value is “approximately 95.4%”. The C24 in series [3] (all tested dose cohorts (20 mg–80 mg)) is reported as above 6.87 ng/mL. Also, the “time maintained above the target concentration (6.87 ng/mL)” value in series [3] (dose cohorts 20 mg–80 mg) was 72 to 136 h. Further, the “estimated clinically effective concentration (antiviral threshold)” value in the series with influenza virus is recorded as 6.87 ng/mL.
